What was measured:
[1] = Moisture sorption/desorption (VTI SGA-100 moisture balance); type: physicochemical; conditions: for hygroscopicity: from moisture sorption data, 5 to 95% RH; for Weight % chg: start, elapsed time 0.0 min, 25 deg C (RH 14.41% Form A, 9.87% Form B)
Text: The samples were not dried prior to analysis.

[2] = Grinding of Form A, XRPD; type: physicochemical; conditions: ground in an amalgamator for 10 minutes
Text: The XRPD data for the increased amorphous content material obtained by grinding a crystalline polymorph are plotted in FIG. 29. […] Further grinding is expected to increase the amorphous content and further broaden the XRPD pattern with the limit of the XRPD pattern being so broadened that it cannot be discerned above noise. When the XRPD pattern is broadened to the limit of being indiscernable, the material is no longer a crystalline material having increased amorphous content relative to unground crystallized material, but is a material that is wholly amorphous as defined herein.
The sample was then analyzed using XRPD.

[3] = cited from earlier work
[4] = XRPD after storage in a closed vial at ambient conditions; type: physicochemical; conditions: 31 days
[5] = system: human tumor xenografts; conditions: cited from earlier work
[6] = Dehydration/desolvation under vacuum, XRPD; type: physicochemical
Text: The characterization of this weight loss as THF solvent is supported by the ^1H NMR data.

Q: Which “hysteresis between the hydration and dehydration curves” value [1] does the source give for `CC[C@@]1(O)C(=O)OCc2c1cc1n(c2=O)Cc2cc3c([N+](=O)[O-])cccc3nc2-1` [Form A, 9-nitrocamptothecin] here?
A: The value was “A small amount of hysteresis”.

Q: What about the hygroscopicity [1] of the same compound?
A: Its hygroscopicity is “not hygroscopic”.

Q: What about the Weight % chg [1] of the same compound?
A: The Weight % chg was 0.0000%.

Q: What about the “effect of grinding on crystallinity (XRPD)” value [2] of the same compound?
A: Its value is “losing crystallinity after grinding”.

Q: With `CC[C@@](O)(C(=O)[O-])c1cc2n(c(=O)c1CO)Cc1cc3ccccc3nc1-2.[Na+]` [Sodium camptothecin] as the compound, how does the “side effects in clinical trials” value ([3]; administered intravenously) read?
A: Its value is “unpredictable side effects such as myelosuppression and hemorrhagic cystitis”.

Q: And the “activity in clinical trials” value ([3]; solubilized by sodium hydroxide in water, intravenous)?
A: The value was “found to have antineoplastic activity”.

Q: For `CC[C@@]1(O)C(=O)OCc2c1cc1n(c2=O)Cc2cc3c([N+](=O)[O-])cccc3nc2-1` [Form B, 9-nitrocamptothecin], which “hysteresis between the hydration and dehydration curves” value [1] is on record?
A: Its value is “essentially no hysterisis”.

Q: And the hygroscopicity [1]?
A: The hygroscopicity was “relatively hygroscopic”.

Q: What about the Weight % chg [1] of the same compound?
A: Its Weight % chg is 0.0000%.

Q: And the “stability of the crystalline form (XRPD pattern vs FIG. 5)” value [4]?
A: The value was “relatively stable”.

Q: What does the source list for `CC[C@@]1(O)C(=O)OCc2c1cc1n(c2=O)Cc2cc3c([N+](=O)[O-])cccc3nc2-1` [9-nitrocamptothecin, 9-nitro-20(S)-camptothecin]?
A: growth of human tumor xenografts ([5]; immunodeficient nude mice): inhibited the growth of human tumor xenografts; regression of established human tumor xenografts ([5]; nude mice): induced regression of human tumors

Q: With `CC[C@@]1(O)C(=O)OCc2c1cc1n(c2=O)Cc2cc3c([N+](=O)[O-])cccc3nc2-1` [Form C, 9-nitrocamptothecin] as the compound, how does the “form after attempt to desolvate under vacuum” value [6] read?
A: The value was “becomes amorphous”.

— patent US7071202B2 (SuperGen, Inc., priority 2002, dated 2006)
